The values that follow are results of earlier work, collected in patent publication US20070207952A1, “Long Acting Biologically Active Conjugates” (priority 2003, published 2007).

Where no end group is shown, it is not given here. [ ]: non-standard residue; d: D form. The star is where a group is joined. Sta = CC(C)C[C@H](N)[C@@H](O)CC(=O)O; Cbz = O=C(OCc1ccccc1)*; Boc = CC(C)(C)OC(=O)*

The data set addresses T1, Human plasma renin (Homo sapiens, UniProt P00797).
T1 construct: plasma renin
T1 sequence (P00797 67-406): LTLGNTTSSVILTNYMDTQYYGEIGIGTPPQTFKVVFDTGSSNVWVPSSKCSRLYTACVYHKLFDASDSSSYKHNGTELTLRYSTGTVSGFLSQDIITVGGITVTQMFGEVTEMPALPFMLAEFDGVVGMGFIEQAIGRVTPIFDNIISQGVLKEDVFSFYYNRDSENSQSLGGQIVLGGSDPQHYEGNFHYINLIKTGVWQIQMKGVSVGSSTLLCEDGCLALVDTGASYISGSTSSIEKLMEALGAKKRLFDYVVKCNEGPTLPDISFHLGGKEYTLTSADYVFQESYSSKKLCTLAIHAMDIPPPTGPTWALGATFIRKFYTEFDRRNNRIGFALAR
The note with it: literature values; cited from earlier work.
The term IC50 denotes the concentration needed to halve the response being measured. With Iva-Phe-Nle-Sta-Ala-Sta, the IC50 is 28 nM.

In the case of Ac-(HCO-Trp)-Pro-Phe-His-Sta---Ile-NH2, the IC50 is 0.1 nM.

With Boc-Pro-Phe-His-Sta---Ile-AMP, the IC50 was 4.1 nM.

Turning to “Pro-His-Pro-Phe-His-Leu(CH2NH)Val-Ile-His-Lys”, the IC50 was 10 nM.

Consider Boc-Phe-His-Sta---Leu-AMB, for which the IC50 is 9 nM.

Regarding PHPFH[Sta]IH[dK], the IC50 was 26 nM.

Turning to Boc-FH[Sta]A[Sta]-OMe, the IC50 was 27 nM.

Consider Cbz-RRPFH[Sta]IHK(Boc)-OMe, for which the IC50 was 1 nM.

For Ac-WPFH[Sta]I-NH2, the IC50 is 16 nM.

For Boc-Phe-His-Sta---Leu-NHCH2Ph, the IC50 is 26 nM.

Take Ac-HPFV[Sta]LF-NH2: the IC50 is 32 nM.

As to PEC-Phe-His-ACHPA-ILeNHC(CH2OH)2CH3, the IC50 is below 0.01 nM.
